Legend:
[1] = system: KMS11 (human myeloma cell line); test: Cell Proliferation Assay (CellTiter-Glo, 3 days); format: cell-based; details: KMS-11, 72 h, KMS11-luc cells
Method in brief: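 KMS11 myeloma cells, 2000 per well in IMDM with 10% FBS, exposed to compound for 3 days at 37° C. Viability read by CellTiter-Glo luminescence; EC50 derived.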

Pim 1 = Pim 1 (Homo sapiens, UniProt P11309); test: Pim 1 AlphaScreen assay (high ATP)
Protocol: The activity of Pim 1, Pim 2, & Pim 3 is measured using a homogeneous bead based system quantifying the amount of phosphorylated peptide substrate resulting from kinase-catalyzed phosphoryl transfer to a peptide substrate. Compounds to be tested are dissolved in 100% DMSO and directly distributed to a white 384-well plate at 0.25 μl per well. […] This is followed by the addition of 5 μl/well of Pim 1, Pim 2 or Pim 3 kinase in assay buffer (concentrations described below). Final assay concentrations (described below) are in 2.5% DMSO. The reactions are performed for ˜2 hours, then stopped by the addition of 10 μl of 0.75 μg/ml anti-phospho Ser/Thr antibody (Cell Signaling), 10 μg/ml Protein A AlphaScreen beads (Perkin Elmer), and 10 μg/ml streptavidin coated AlphaScreen beads in stop/detection buffer (50 mM EDTA, 95 mM Tris, pH=7.5, 0.01% Tween-20). The stopped reactions are incubated overnight in the dark. The phosphorylated peptide is detected via an oxygen anion initiated chemiluminescence/fluorescence cascade using the Envision plate reader (Perkin Elmer).

Pim 2 = Pim 2 (Homo sapiens, UniProt Q9P1W9); test: Pim 2 AlphaScreen assay (high ATP)
Pim 3 = Pim 3 (Homo sapiens, UniProt Q86V86); test: Pim 3 AlphaScreen assay (high ATP)

Chain of Pim 1 (P11309 whole entry): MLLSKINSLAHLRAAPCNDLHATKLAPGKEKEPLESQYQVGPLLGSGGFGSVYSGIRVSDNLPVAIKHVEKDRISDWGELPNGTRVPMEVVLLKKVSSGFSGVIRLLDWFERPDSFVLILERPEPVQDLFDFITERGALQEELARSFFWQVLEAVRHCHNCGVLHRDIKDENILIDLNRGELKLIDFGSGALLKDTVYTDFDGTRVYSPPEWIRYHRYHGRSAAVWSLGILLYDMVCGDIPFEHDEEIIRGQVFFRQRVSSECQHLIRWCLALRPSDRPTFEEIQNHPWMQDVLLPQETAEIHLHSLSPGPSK
Chain of Pim 2 (Q9P1W9 whole entry): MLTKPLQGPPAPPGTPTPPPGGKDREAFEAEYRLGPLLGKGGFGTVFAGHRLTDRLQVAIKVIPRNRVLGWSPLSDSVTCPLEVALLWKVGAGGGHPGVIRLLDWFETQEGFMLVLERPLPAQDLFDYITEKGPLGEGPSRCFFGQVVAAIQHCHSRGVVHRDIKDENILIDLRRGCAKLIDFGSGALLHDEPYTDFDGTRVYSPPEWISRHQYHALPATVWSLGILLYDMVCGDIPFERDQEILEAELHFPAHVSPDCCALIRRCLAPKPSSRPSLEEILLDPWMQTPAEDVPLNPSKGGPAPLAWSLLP

Row | SMILES | EC50 [1] [nM] | IC50 (Pim 1) [nM] | IC50 (Pim 2) [nM] | IC50 (Pim 3) [nM]
1 | C[C@H]1C[C@@H](c2ccncc2NC(=O)c2cccc(-c3c(F)cc(N4CCOCC4)cc3F)n2)C[C@@H](N)[C@@H]1O [Example 191, N-(4-((1R,3R,4R,5S)-3-amino-4-hydroxy-5-methylcyclohexyl)pyridin-3-yl)-6-(2,6-difluoro-4-morpholinophenyl)picolinamide] | 263 | 0.02 | 2.31 | 0.52
2 | COC(C)(C)COc1cc(F)c(-c2nc(C(=O)Nc3cnccc3[C@H]3C[C@@H](N)[C@H](O)[C@@H](C)C3)ccc2F)c(F)c1 [Example 45, N-(4-((1R,3R,4R,5S)-3-amino-4-hydroxy-5-methylcyclohexyl)pyridin-3-yl)-6-(2,6-difluoro-4-(2-methoxy-2-methylpropoxy)phenyl)-5-fluoropicolinamide] | 49 | 0.03 | 3.15 | 1.13
3 | CC(C)Oc1cc(F)c(-c2nc(C(=O)Nc3cnccc3[C@@H]3C[C@H](C)C[C@H](N)C3)c(N)cc2F)c(F)c1 [Example 96, 3-amino-N-(4-((1R,3S,5S)-3-amino-5-methylcyclohexyl)pyridin-3-yl)-6-(2,6-difluoro-4-isopropoxyphenyl)-5-fluoropicolinamide] | 76 | 0.01 | 1.16 | 0.24
4 | C[C@H]1C[C@@H](c2ccncc2NC(=O)c2ccc(F)c(-c3c(F)cc(OC4CCOC4)cc3F)n2)C[C@@H](N)[C@@H]1O (stereo in doubt) [Example 70, N-(4-((1R,3R,4R,5S)-3-amino-4-hydroxy-5-methylcyclohexyl)pyridin-3-yl)-6-(2,6-difluoro-4-((S)-tetrahydrofuran-3-yloxy)phenyl)-5-fluoropicolinamide] | 68 | 0.04 | 4.01 | 1.15
5 | C[C@H]1C[C@@H](c2ccncc2NC(=O)c2ccc(F)c(-c3c(F)cc(C4(F)COC4)cc3F)n2)C[C@@H](N)[C@H]1O [Example 137, N-(4-((1R,3R,4S,5S)-3-amino-4-hydroxy-5-methylcyclohexyl)pyridin-3-yl)-6-(2,6-difluoro-4-(3-fluorooxetan-3-yl)phenyl)-5-fluoropicolinamide] | 549 | 0.08 | 10.3 | 6.9
6 | C[C@@H]1C[C@H](N)C[C@H](c2ccncc2NC(=O)c2ccc(F)c(-c3c(F)cc(C4CCOCC4)cc3F)n2)C1 [Example 82, N-(4-((1R,3S,5S)-3-amino-5-methylcyclohexyl)pyridin-3-yl)-6-(2,6-difluoro-4-(tetrahydro-2H-pyran-4-yl)phenyl)-5-fluoropicolinamide] | 30 | 0.01 | 1.05 | 0.52
7 | C[C@H]1C[C@@H](c2ccncc2NC(=O)c2ccc(F)c(-c3c(F)cc(OCCO)cc3F)n2)C[C@@H](N)[C@@H]1O [Example 32, N-(4-((1R,3R,4R,5S)-3-amino-4-hydroxy-5-methylcyclohexyl)pyridin-3-yl)-6-(2,6-difluoro-4-(2-hydroxyethoxy)phenyl)-5-fluoropicolinamide] | 52 | 0.06 | 4.76 | 1.9
8 | CC(C)Oc1cc(F)c(-c2nc(C(=O)Nc3cnccc3[C@H]3C[C@@H](N)[C@H](O)[C@@H](C)C3)c(N)cc2F)c(F)c1 [Example 97] | 69 | 0.02 | 1.55 | 0.37
9 | COCCOc1cc(F)c(-c2nc(C(=O)Nc3cnccc3[C@H]3C[C@@H](N)C[C@@H](C(C)C)C3)ccc2F)c(F)c1 [Example 175, N-(4-((1R,3S,5S)-3-amino-5-isopropylcyclohexyl)pyridin-3-yl)-6-(2,6-difluoro-4-(2-methoxyethoxy)phenyl)-5-fluoropicolinamide] | 176 | 0.01 | 0.98 | 0.46
10 | C[C@@H]1C[C@H](N)C[C@H](c2ccncc2NC(=O)c2ccc(F)c(-c3c(F)cc(OC4CCOCC4)cc3F)n2)C1 [Example 63, N-(4-((1R,3S,5S)-3-amino-5-methylcyclohexyl)pyridin-3-yl)-6-(2,6-difluoro-4-((tetrahydro-2H-pyran-4-yl)oxy)phenyl)-5-fluoropicolinamide] | 76 | 0.01 | 2.04 | 0.32
11 | C[C@H]1C[C@@H](c2ccncc2NC(=O)c2ccc(F)c(-c3c(F)ccc(OCCO)c3F)n2)C[C@@H](N)[C@@H]1O [Example 30, N-(4-((1R,3R,4R,5S)-3-amino-4-hydroxy-5-methylcyclohexyl)pyridin-3-yl)-6-(2,6-difluoro-3-(2-hydroxyethoxy)phenyl)-5-fluoropicolinamide] | 186 | 0.07 | 11.4 | 2.25
12 | C[C@H]1CN(c2ccncc2NC(=O)c2ccc(F)c(-c3c(F)cc(OCC(F)(F)F)cc3F)n2)C[C@@H](N)[C@@H]1O [Example 198, N-(4-((3R,4R,5S)-3-amino-4-hydroxy-5-methylpiperidin-1-yl)pyridin-3-yl)-6-(2,6-difluoro-4-(2,2,2-trifluoroethoxy)phenyl)-5-fluoropicolinamide] | 98 | 0.01 | 0.33 | 0.17
13 | Cc1noc(C)c1-c1cc(F)c(-c2nc(C(=O)Nc3cnccc3[C@@H]3C[C@H](C)C[C@H](N)C3)ccc2F)c(F)c1 [Example 174, N-(4-((1R,3S,5S)-3-amino-5-methylcyclohexyl)pyridin-3-yl)-6-(4-(3,5-dimethylisoxazol-4-yl)-2,6-difluorophenyl)-5-fluoropicolinamide] | 1020 | 0.08 | 30 | 10.1
14 | COCCCOc1cc(F)c(-c2nc(C(=O)Nc3cnccc3[C@@H]3C[C@H](C)C[C@H](N)C3)ccc2F)c(F)c1 [Example 176, N-(4-((1R,3S,5S)-3-amino-5-methylcyclohexyl)pyridin-3-yl)-6-(2,6-difluoro-4-(3-methoxypropoxy)phenyl)-5-fluoropicolinamide] | 182 | 0.01 | 1.62 | 0.48
15 | C[C@@H]1C[C@H](N)C[C@H](c2ccncc2NC(=O)c2ccc(F)c(-c3c(F)cc(OC4COC4)cc3F)n2)C1 [Example 48, N-(4-((1R,3S,5S)-3-amino-5-methylcyclohexyl)pyridin-3-yl)-6-(2,6-difluoro-4-(oxetan-3-yloxy)phenyl)-5-fluoropicolinamide] | 84 | 0.08 | 4.16 | 0.24

The next compounds have a lower EC50 [1] than those just listed; values first:

Row | EC50 [1] [nM] | IC50 (Pim 1) [nM] | IC50 (Pim 2) [nM] | IC50 (Pim 3) [nM] | SMILES
16 | 10 | 0.01 | 0.57 | 0.12 | C[C@H]1CN(c2ccncc2NC(=O)c2ccc(F)c(-c3c(F)cc(C4CCOCC4)cc3F)n2)C[C@@H](N)[C@@H]1O [Example 99, N-(4-((3R,4R,5S)-3-amino-4-hydroxy-5-methylpiperidin-1-yl)pyridin-3-yl)-6-(2,6-difluoro-4-(tetrahydro-2H-pyran-4-yl)phenyl)-5-fluoropicolinamide]
17 | 24 | 0.01 | 1.29 | 0.39 | C[C@H]1C[C@@H](c2ccncc2NC(=O)c2ccc(F)c(-c3c(F)cc(C4CCOCC4)cc3F)n2)C[C@@H](N)[C@@H]1O [Example 94, N-(4-((1R,3R,4R,5S)-3-amino-4-hydroxy-5-methylcyclohexyl)pyridin-3-yl)-6-(2,6-difluoro-4-(tetrahydro-2H-pyran-4-yl)phenyl)-5-fluoropicolinamide]
18 | 28 | 0.01 | 0.38 | 0.14 | COCCc1cc(F)c(-c2nc(C(=O)Nc3cnccc3N3C[C@@H](N)[C@H](O)[C@@H](C)C3)ccc2F)c(F)c1 [Example 109, N-(4-((3R,4R,5S)-3-amino-4-hydroxy-5-methylpiperidin-1-yl)pyridin-3-yl)-6-(2,6-difluoro-4-(2-methoxyethyl)phenyl)-5-fluoropicolinamide]
19 | 15 | 0.01 | 0.75 | 0.13 | C[C@H]1CN(c2ccncc2NC(=O)c2nc(-c3c(F)cc(C(C)(C)O)cc3F)c(F)cc2N)C[C@@H](N)[C@@H]1O [Example 102, 3-amino-N-(4-((3R,4R,5S)-3-amino-4-hydroxy-5-methylpiperidin-1-yl)pyridin-3-yl)-6-(2,6-difluoro-4-(2-hydroxypropan-2-yl)phenyl)-5-fluoropicolinamide]
20 | 25 | 0.02 | 1.44 | 0.93 | COC1(c2cc(F)c(-c3nc(C(=O)Nc4cnccc4[C@H]4C[C@@H](N)[C@H](O)[C@@H](C)C4)c(N)cc3F)c(F)c2)COC1 [Example 91, 3-amino-N-(4-((1R,3R,4R,5S)-3-amino-4-hydroxy-5-methylcyclohexyl)pyridin-3-yl)-6-(2,6-difluoro-4-(3-methoxyoxetan-3-yl)phenyl)-5-fluoropicolinamide]
21 | 13 | 0.02 | 1.52 | 1 | C[C@@H]1C[C@H](N)C[C@H](c2ccncc2NC(=O)c2ccc(F)c(-c3c(F)cc(CCO)cc3F)n2)C1 [Example 33, N-(4-((1R,3S,5S)-3-amino-5-methylcyclohexyl)pyridin-3-yl)-6-(2,6-difluoro-4-(2-hydroxyethyl)phenyl)-5-fluoropicolinamide]
22 | 28 | 0.02 | 2.02 | 0.39 | CCOc1ccc(F)c(-c2nc(C(=O)Nc3cnccc3N3C[C@@H](N)[C@H](O)[C@@H](C)C3)ccc2F)c1F [Example 216, N-(4-((3R,4R,5S)-3-amino-4-hydroxy-5-methylpiperidin-1-yl)pyridin-3-yl)-6-(3-ethoxy-2,6-difluorophenyl)-5-fluoropicolinamide]

— patent publication US20120225062A1 (priority 2011, published 2012)
